Measured values as given in patent publication EP0099286B1, “Compound containing a tripeptide sequence of the threonyl-lysyl proline-type, or similar, useful as an anti-inflammatory, anti-allergic or antalgesic agent” (INSTITUT PASTEUR DE LILLE, priority 1982, dated 1987).
One block for each molecule: values may come before it. Residues, ends and D or L forms follow the SMILES beside them.

What was measured:
[1] = test system: macrophages; assay: Inhibition of macrophage activity (general); assay type: cell-based; conditions: for propriétés au terme des mêmes tests: same tests as for the tripeptide
Source text: (§1) Selon des tests effectués par les méthodes décrites dans l'article cité plus haut de "Immunology Letters", la L'thréonyl-L-lysyl-L-proline s'est révélée atoxique pour les cellules et inhibitrice non seulement de la libération, mais également de la synthèse de la β-glucuronidase lysosomiale. En présence du peptide, le taux intracellulaire de cette enzyme décroît également. La L-thréonyl-L-lysyl-L-proline inhibe également la stimulation des macrophages de patients allergiques par l'allergène correspondant, lorsqu'ils ont été préincubés en présence du peptide. Cette dépression est très significative (50 à 70%) dans des essais in vitro. La thréonyl-L-lysyl-L-proline présente un pouvoir inhibiteur d'environ 60% aux concentrations de 200 nanogrammes à 20 picogrammes, ce pouvoir inhibiteur étant même de 50% à 2 picogrammes. Cette inhibition par le peptide se manifeste aussi dans des essais d'activation de macrophages par des réactions (IgE)-(Anti-IgE), que ces macrophages aient été incubés auparavant in vitro en présence du peptide, ou obtenus à partir d'animaux auxquels le peptide avait antérieurement été administré par voie intraveineuse (chez le rat, à des doses de 10 µg, trois heures avant le prélèvement des cellules). La libération d'anion superoxyde par les macrophages de rats est également inhibée par le tripeptide en question. […] Le peptide administré au rat induit également une inhibition de l'anaphylaxie cutanée passive provoquée chez l'animal par les administrations successives d'un antigène et de l'antisérum correspondant.

[2] = test system: cellules; assay: Toxicity for the cells; assay type: cell-based; conditions: methods of the cited Immunology Letters article
Source text: (§2) Selon des tests effectués par les méthodes décrites dans l'article cité plus haut de "Immunology Letters", la L'thréonyl-L-lysyl-L-proline s'est révélée atoxique pour les cellules et inhibitrice non seulement de la libération, mais également de la synthèse de la β-glucuronidase lysosomiale. En présence du peptide, le taux intracellulaire de cette enzyme décroît également. La L-thréonyl-L-lysyl-L-proline inhibe également la stimulation des macrophages de patients allergiques par l'allergène correspondant, lorsqu'ils ont été préincubés en présence du peptide. Cette dépression est très significative (50 à 70%) dans des essais in vitro. La thréonyl-L-lysyl-L-proline présente un pouvoir inhibiteur d'environ 60% aux concentrations de 200 nanogrammes à 20 picogrammes, ce pouvoir inhibiteur étant même de 50% à 2 picogrammes. Cette inhibition par le peptide se manifeste aussi dans des essais d'activation de macrophages par des réactions (IgE)-(Anti-IgE), que ces macrophages aient été incubés auparavant in vitro en présence du peptide, ou obtenus à partir d'animaux auxquels le peptide avait antérieurement été administré par voie intraveineuse (chez le rat, à des doses de 10 µg, trois heures avant le prélèvement des cellules). La libération d'anion superoxyde par les macrophages de rats est également inhibée par le tripeptide en question. […]

[3] = test system: β-glucuronidase lysosomiale; assay: Release and synthesis of lysosomal β-glucuronidase by macrophages; assay type: cell-based
Source text: as §1

[4] = test system: macrophages de patients allergiques; assay: Stimulation of macrophages of allergic patients by the corresponding allergen, in vitro; assay type: cell-based
Source text: D'autre part, les macrophages alvéolaires de sujets allergiques stimulés par l'allergène correspondant sont également inhibés de manière significative (50 à 60%) s'ils ont été péalablement incubés avec des produits de l'hydrolyse des IgG par les protéases parasitaires.
Selon des tests effectués par les méthodes décrites dans l'article cité plus haut de "Immunology Letters", la L'thréonyl-L-lysyl-L-proline s'est révélée atoxique pour les cellules et inhibitrice non seulement de la libération, mais également de la synthèse de la β-glucuronidase lysosomiale. En présence du peptide, le taux intracellulaire de cette enzyme décroît également. La L-thréonyl-L-lysyl-L-proline inhibe également la stimulation des macrophages de patients allergiques par l'allergène correspondant, lorsqu'ils ont été préincubés en présence du peptide. Cette dépression est très significative (50 à 70%) dans des essais in vitro. La thréonyl-L-lysyl-L-proline présente un pouvoir inhibiteur d'environ 60% aux concentrations de 200 nanogrammes à 20 picogrammes, ce pouvoir inhibiteur étant même de 50% à 2 picogrammes. […]

[5] = test system: macrophages; assay: Macrophage activation by (IgE)-(Anti-IgE) reactions, macrophages pre-incubated in vitro with the peptide; assay type: cell-based; conditions: macrophages incubated beforehand in vitro with the peptide
Source text: as §2

[6] = test system: macrophages; assay: Macrophage activation by (IgE)-(Anti-IgE) reactions, macrophages from animals given the peptide intravenously; assay type: in vivo; conditions: rat, intravenous, 10 µg, three hours before cell collection
Source text: as §2

[7] = test system: macrophages de rats; assay: Superoxide anion release by macrophages; assay type: cell-based
Source text: as §2

[8] = test system: mastocytes; assay: Mast cell degranulation in vitro; assay type: cell-based, rats; conditions: pre-incubated with peptide; stimulants polymyxine or phytohémagglutinine
[9] = test system: anaphylaxie cutanée passive; assay: Passive cutaneous anaphylaxis; assay type: in vivo; conditions: rat; provoked by successive administration of antigen and corresponding antiserum
Source text: as §2

[10] = test system: macrophages; conditions: macrophages challenged simultaneously by an antigen and the peptide; cited from earlier work

Structure (SMILES): N=C(N)NCCC[C@H](NC(=O)[C@@H]1CCCN1C(=O)[C@@H](N)CCCCN)C(=O)O [L-lysyl-L-prolyl-L-arginine, reference compound] (H-Lys-Pro-Arg-OH)
activité à l'égard de l'activité des macrophages [1]: n'est pas active

libération de la β-glucuronidase lysosomiale [3]: inhibitrice
synthèse de la β-glucuronidase lysosomiale [3]: inhibitrice
taux intracellulaire de cette enzyme ([3]; β-glucuronidase, in presence of the peptide): décroît
Structure (SMILES): C[C@@H](O)[C@H](N)C(=O)N[C@@H](CCCCN)C(=O)N1CCC[C@H]1C(=O)O [L-thréonyl-L-lysyl-L-proline] (H-Thr-Lys-Pro-OH)
activité à l'égard de l'activité des macrophages [1]: activité inhibitrice semblable
toxicité pour les cellules [2]: atoxique
pouvoir inhibiteur ([4]; 2 picogrammes): 50%
pouvoir inhibiteur ([4]; concentrations de 200 nanogrammes à 20 picogrammes): ~60%
inhibition de l'activation de macrophages par des réactions (IgE)-(Anti-IgE) [5]: inhibition
inhibition de l'activation de macrophages par des réactions (IgE)-(Anti-IgE) [6]: inhibition
libération d'anion superoxyde par les macrophages de rats [7]: inhibée
dégranulation des mastocytes [8]: inhibition sensible
inhibition de l'anaphylaxie cutanée passive [9]: inhibition
propriété d'activer les macrophages [10]: abolition

Structure (SMILES): CC(=O)N[C@H](C(=O)N[C@@H](CCCCN)C(=O)N1CCC[C@H]1C(=O)O)[C@@H](C)O [dérivé N-acétylé] (Ac-Thr-Lys-Pro-OH)
propriétés au terme des mêmes tests [1]: essentiellement les mêmes propriétés

Structure (SMILES): C[C@@H](O)[C@H](N)C(=O)N[C@@H](CCCCN)C(=O)N1CCC[C@H]1C(N)=O [dérivé amidé, amide de la thréonyl-lysylproline] (H-Thr-Lys-Pro-NH2)
propriétés au terme des mêmes tests [1]: essentiellement les mêmes propriétés
